Test results taken from paper PMC9503459, “Antifungal Activity, Structural Stability, and Immunomodulatory Effects on Human Immune Cells of Defensin from the Lentil Lens culinaris” (Membranes, 2022).
No end group written: not given here.

Experiments:
[1] = tested on: Gram-positive or Gram-negative bacteria; details: cited from earlier work
[2] = tested on: monocyte-derived mature dendritic cells (moDCs); assay: Cytokine response by multiplex xMAP, moDCs; type: cell-based, human; details: 2 µM, 24 h
Description: Colorectal adenocarcinoma Caco-2 cell line (ATCC HTB-37) was cultured in complete DMEM/F12 (1:1) medium containing 10% fetal bovine serum (FBS, Gibco) and 1X antibiotic-antimycotic solution (1XAAS, Invitrogen, Waltham, MA, USA). The acute monocytic leukemia THP-1 line (ATCC TIB-202) was cultured in complete RPMI-1640 medium, containing 10% FBS, 1XAAS, and […]. THP-1 cells were differentiated into pro-inflammatory macrophages (Mφ1) with phorbol 12-myristate 13-acetate (Sigma-Aldrich) for 24 h and subsequently polarized with lipopolysaccharide from E. coli (Sigma-Aldrich) and rhIFN-γ (Sigma-Aldrich) for another 48 h according to previously reported protocol. All cells were cultured in a humidified CO2 incubator (5% CO2, 37 °C). Primary peripheral blood mononuclear cells (PBMCs) collected from a healthy donor were purchased from American Type Culture Collection (ATCC PCS-800-011). CD4^+ T-helper and CD8^+ T cytotoxic cells were isolated from PBMCs by magnetic separation with mouse anti-human CD4-PE (clone 13B8.2, Beckman Coulter Diagnostics, Pasadena, CA, USA) and CD8-PE (clone REA734, Miltenyi Biotec, Bergisch Gladbach, Germany), Anti-PE MicroBeads (Miltenyi Biotec), and LS Separation Columns (Miltenyi Biotec). Isolated CD4^+ and CD8^+ cells were expanded separately with Dynabeads™ Human T-Expander CD3/CD28 (Gibco, Waltham, MA, USA) in RPMI-1640 supplemented with 10% FBS, 1XAAS and 100 U/mL rh-IL-2 (Gibco). Regulatory CD4^+ FoxP3^+ T cells (Tregs) were isolated from PBMCs by magnetic separation with CD4^+CD25^+ Regulatory T Cell Isolation Kit, human (Miltenyi Biotec). Primary CD14^+ blood monocytes were isolated from PBMCs by adherence according to standard technique. Monocyte-derived mature dendritic cells (moDCs) were obtained from CD14^+ blood monocytes according to the previously reported protocol. Briefly, blood monocytes were incubated in complete RPMI-1640 medium, containing 10% FBS, 1XAAS, 800 U/mL rhGM-CSF (Sci-Store, Russia, Moscow) and 500 U/mL rhIL-4 (Sci-Store) for 3 days. Fresh complete RPMI-1640 medium with rhGM-CSF and rhIL-4 was added to the culture on day 3. On day 5, fresh complete RPMI-1640 containing 100 U/mL rhTNF-α (Sigma) as well as 800 U/mL rhGM-CSF and 500 U/mL rhIL-4 was added and the culture was incubated for another 4 days until full maturation.
Caco-2 cells were seeded into the wells of a 48-well plate, coated with 0.1% bovine collagen (Sigma-Aldrich) for 24 h, 3 weeks before the experiment with complete DMEM/F12 (1:1) medium renewal every 2–3 days. Monocytes, moDCs, CD4^+ T-helper and CD8^+ T cytotoxic cells, Mφ1, and Regulatory CD4^+ FoxP3^+ T cells were seeded into the wells of 48-well plates in the complete RPMI-1640 medium supplemented with 10% Human AB serum (HABS, Capricorn Scientific, Ebsdorfergrund, Germany) and 1XAAS 24 h prior to the experiment; medium in Caco-2-containing wells was also replaced with the same medium. After 24 h, half of the medium in each well was replaced by fresh complete RPMI-1640 medium with 10% HABS, supplemented with 4 µM of Lc-def for the sample wells or fresh medium alone for the control wells. Cell cultures were kept in CO2-incubator (5% CO2, 37 °C) for another 24 h. Culture supernatants were collected 24 h later and stored at −70 °C degrees less than one month prior to the analytes assessment. […]

Lc-def: defensin from lentil Lens culinaris seeds (UniProt:B3F051), recombinant, overexpressed in Escherichia coli (KTCENLSDSFKGPCIPDGNCNKHCKEKEHLLSGRCRDDFRCWCTRNC; disulfide (positions not given here); ends not checked; also: disulfide bonds present, pairing not given here; UniProt B3F051 28-74, looked up)
effect on growth of bacteria [1]: did not affect the growth | EGF [2]: 2.16 pg/mL | Eotaxin [2]: <3.23↓ pg/ml | FGF-2 [2]: 34.19 pg/mL | FLT-3L [2]: 0.84 pg/mL | Fractalkine [2]: <23.19↓ pg/ml | G-CSF [2]: 4.71 pg/mL | GM-CSF [2]: 10.34 pg/mL | GROa [2]: <0.67↓ pg/ml | IFNa2 [2]: 7.77 pg/mL | IFNg [2]: 3.79 pg/mL | IL-1RA [2]: 37.33 pg/mL | IL-1a [2]: 20.45 pg/mL | IL-1b [2]: <18.72↓ pg/ml | IL-2 [2]: 0.98 pg/mL | IL-3 [2]: <0.48↓ pg/ml | IL-4 [2]: <0.31↓ pg/ml | IL-5 [2]: 2.41 pg/mL | IL-6 [2]: 1.12 pg/mL | IL-7 [2]: <0.33↓ pg/ml | IL-8 [2]: 162.8 pg/mL | IL-9 [2]: 4.1 pg/mL | IL-10 [2]: 14.42 pg/mL | IL-12 (p40) [2]: 19.56 pg/mL | IL-12 (p70) [2]: <1.48↓ pg/ml | IL-13 [2]: 11.42 pg/mL | IL-15 [2]: 15.16 pg/mL | IL-17A [2]: <1.55↓ pg/ml | IL-17E/IL-25 [2]: <20.59↓ pg/ml | IL-17F [2]: <16.96↓ pg/ml | IL-18 [2]: 2.04 pg/mL | IL-22 [2]: 9.4 pg/mL | IL-27 [2]: 51.46 pg/mL | IP-10 [2]: 1871 pg/mL | M-GSF [2]: 78 pg/mL | MCP-1 [2]: 782.17 pg/mL | MCP-3 [2]: 29.76 pg/mL | MDC [2]: 1903 pg/mL | MIG [2]: 33510 pg/mL | MIP-1a [2]: 119.77 pg/mL | MIP-1b [2]: 243.76 pg/mL | PDGF-AA [2]: 51.36 pg/mL | PDGF-AB/BB [2]: 107.03 pg/mL | RANTES [2]: 15.66 pg/mL | TGF-a [2]: 75.94 pg/mL | TNFa [2]: 21.61 pg/mL | TNFb [2]: <0.73↓ pg/ml | VEGFa [2]: <1.27↓ pg/ml | changes in cytokine profiles [2]: did not induce significant changes | sCD40L [2]: 84.33 pg/mL
